Data on eleven compounds can be found in ChEMBL document CHEMBL1201862, “PubChem BioAssay data set” (2004).

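Each compound was tested at five concentrations against cells in 96-well plates for 48 hours. The concentration for 50% growth inhibition is given as GI50.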 Calls of active or inactive are those of the source. Cut-off read from the data, not from the text of the source: active = GI50 up to about 1.1 µM and inactive = higher.

Assay in all cases: NCI anticancer screen, dose series, 48 h
Experiment [1] relates to SN12C.
Experiment [2] deals with CCRF-CEM.
Experiment [3] deals with SK-MEL-28.
Experiment [4] has as its system HCT-116.
In experiment [5] the test system is NCI-H522.
The test system of experiment [6] is UACC-62.
Experiment [7] relates to OVCAR-4.
Experiment [8] concerns HT-29.
In experiment [9] the test system is SF-268.
Experiment [10] deals with OVCAR-8.
In experiment [11] the test system is KM12.
In experiment [12] the test system is HOP-92.
For experiment [13], the system named is RXF 393.
For experiment [14], the system named is MOLT-4.
The test system of experiment [15] is NCI-H460.
Experiment [16] concerns EKVX.
In experiment [17] the test system is NCI-H226.
The test system of experiment [18] is OVCAR-5.
The test system of experiment [19] is A549.
Experiment [20] has as its system SK-MEL-5.

Regarding `O=c1[nH]c(=O)n(COCCOCc2ccccc2)cc1Nc1ccccc1`, the GI50 in [1], in experiment [2], in experiment [3], in [4], in [5] and in [6] was > 100 µM (inactive) in each case. The GI50 in experiment [7], in experiment [8], in [9], in [10], in experiment [11] and in [12] was > 100 µM (inactive) throughout. For the same compound, the GI50 is > 100 µM (inactive) in experiment [13]; 59.4 µM (inactive) in experiment [14]; > 100 µM (inactive) in experiment [15]; > 100 µM (inactive) in experiment [16]; > 100 µM (inactive) in experiment [17]; > 100 µM (inactive) in experiment [18]. For the same compound, in [19], the GI50 is > 100 µM (inactive).
As to `OCC1CCC(n2cnc3c(O)ncnc32)O1` (stereo unspecified), the GI50 in experiment [1], in experiment [2], in experiment [20], in [3], in [4] and in [5] was > 100 µM (inactive) throughout. Besides, the GI50 in experiment [6], in [7], in [8], in experiment [10], in [11] and in experiment [12] was > 100 µM (inactive) throughout. Moreover, the GI50 in experiment [13], in experiment [14], in experiment [15], in experiment [16], in experiment [17] and in [18] was > 100 µM (inactive) throughout. Moreover, in experiment [19], the GI50 is > 100 µM (inactive).
`CC(=O)C(CN(CC(C)C)CC(C)C)C(c1ccccc1)c1c(O)c2ccccc2oc1=O` (stereo unspecified): the GI50 in experiment [1] was > 100 µM (inactive); in [2], > 10 µM (inactive); in [3] it was > 100 µM (inactive); in experiment [4], > 100 µM (inactive); in experiment [5], > 100 µM (inactive); in experiment [6], > 100 µM (inactive). Also, the GI50 in experiment [7], in [8], in experiment [9], in [10], in experiment [12] and in experiment [13] was > 100 µM (inactive) each time. Besides, the GI50 in experiment [14], in experiment [16], in experiment [17], in experiment [18] and in experiment [19] was > 100 µM (inactive) each time.
For the compound `Cc1ccccc1C1=[N+]([O-])c2ccccc2C1=O`, the GI50 in experiment [1] was 17.7 µM (inactive); in experiment [2], 18.5 µM (inactive); in experiment [20], 16.8 µM (inactive); in [3], 20.7 µM (inactive); in experiment [4], 18.5 µM (inactive); in experiment [5], 15.2 µM (inactive). Besides, the GI50 was 20.1 µM (inactive) in experiment [6]; 14.5 µM (inactive) in experiment [8]; 20.5 µM (inactive) in [9]; 16.7 µM (inactive) in experiment [10]; 13.2 µM (inactive) in experiment [11]; 49.4 µM (inactive) in [12]. Also, the GI50 was 21.9 µM (inactive) in [13]; 19 µM (inactive) in experiment [14]; 19.7 µM (inactive) in experiment [15]; 21 µM (inactive) in experiment [16]; 16.3 µM (inactive) in experiment [17]; 27.6 µM (inactive) in experiment [18]. Also, the GI50 in experiment [19] was > 10 µM (inactive).
For `N#CC12Cc3cc4c(cc3-c3cccc(c31)CCN2C(=O)c1ccccc1)OCO4` (stereo unspecified), the GI50 in [1] was > 100 µM (inactive); in experiment [2], > 100 µM (inactive); in [20] it was > 100 µM (inactive); in [3] it was > 100 µM (inactive); in experiment [4], > 100 µM (inactive); in experiment [5], > 10 µM (inactive). Also, the GI50 was > 100 µM (inactive) in experiment [6]; > 100 µM (inactive) in [8]; > 100 µM (inactive) in experiment [9]; 65.3 µM (inactive) in [10]; > 100 µM (inactive) in experiment [11]; 22.8 µM (inactive) in experiment [12]. Moreover, the GI50 in experiment [13] was 53.1 µM (inactive); in experiment [14], > 100 µM (inactive); in experiment [16] it was > 100 µM (inactive); in experiment [17], > 100 µM (inactive); in [18], > 100 µM (inactive); in experiment [19] it was > 100 µM (inactive).
As to `CN(C)CCN(C)C(=O)C1CCCN1C(=O)OCc1ccccc1` (stereo unspecified), the GI50 in experiment [1] is > 100 µM (inactive); in experiment [2] it was 19.4 µM (inactive); in [20], > 100 µM (inactive); in [3], > 100 µM (inactive); in experiment [4], > 100 µM (inactive); in experiment [5] it was 6.71 µM (inactive). In addition, the GI50 in experiment [6], in experiment [7], in experiment [8], in [9], in experiment [10] and in [12] was > 100 µM (inactive) each time. Also, the GI50 in experiment [13], in [14], in experiment [15], in [16], in experiment [17] and in experiment [18] was > 100 µM (inactive) each time. Also, the GI50 in experiment [19] is > 100 µM (inactive).
For `Cn1ccnc1SC(F)(F)c1nc2ccccc2o1`, the GI50 in [1], in experiment [2], in experiment [20], in experiment [3], in experiment [4] and in experiment [5] was > 100 µM (inactive) each time. Further, the GI50 in experiment [6], in experiment [7], in experiment [8], in experiment [9], in experiment [10] and in experiment [11] was > 100 µM (inactive) each time. Moreover, the GI50 in [12], in [13], in experiment [14], in [15], in experiment [17] and in [18] was > 100 µM (inactive) throughout. The GI50 in experiment [19] is > 100 µM (inactive).
For the compound `COC(=O)/C(=C\Nc1cccc(C)n1)S(=O)(=O)c1ccc(C)cc1`, the GI50 in experiment [1] was > 100 µM (inactive); in experiment [2], 37.8 µM (inactive); in [20] it was 36.8 µM (inactive); in experiment [3] it was 67 µM (inactive); in [4] it was 52.2 µM (inactive); in experiment [5] it was 66.4 µM (inactive). Also, the GI50 was 31.5 µM (inactive) in experiment [6]; 93.5 µM (inactive) in [7]; 47.4 µM (inactive) in [8]; 96.2 µM (inactive) in experiment [9]; 77.6 µM (inactive) in [10]; 35.5 µM (inactive) in experiment [11]. For the same compound, the GI50 in experiment [12] was 54.5 µM (inactive); in experiment [13] it was 70.8 µM (inactive); in [14] it was 28.6 µM (inactive); in [15], 61.7 µM (inactive); in experiment [17], 36.5 µM (inactive); in [18], > 100 µM (inactive). In addition, the GI50 in [19] is 60 µM (inactive).
`Cc1oc2c(C)c(O)c3c(c2c1C1(C)OCCO1)C(=O)C=C(Cl)C3=O`: the GI50 in [1], in [2], in experiment [20], in experiment [3], in [4] and in experiment [5] was > 100 µM (inactive) in each case. Moreover, the GI50 in experiment [7], in [8], in experiment [9], in experiment [10], in [11] and in experiment [12] was > 100 µM (inactive) each time. The GI50 in experiment [13], in experiment [14], in experiment [15], in experiment [16], in experiment [17] and in experiment [18] was > 100 µM (inactive) throughout. The GI50 in [19] is > 100 µM (inactive).
On to `CC(C)=Cc1cc2c(cc1O)CCC1C2CC[C@@]2(C)C1CC[C@@H]2O` (stereo partly specified), for which the GI50 is 14.7 µM (inactive) in [1]; 12.9 µM (inactive) in experiment [2]; 6.24 µM (inactive) in experiment [20]; 15.5 µM (inactive) in experiment [3]; 10.3 µM (inactive) in experiment [4]; 5.35 µM (inactive) in experiment [5]. The GI50 was 30.3 µM (inactive) in [7]; 14.9 µM (inactive) in [8]; 16.7 µM (inactive) in experiment [9]; 17.9 µM (inactive) in experiment [10]; 11.8 µM (inactive) in experiment [11]; 21.3 µM (inactive) in [12]. Also, the GI50 in experiment [13] was 6.01 µM (inactive); in experiment [14], 6.41 µM (inactive); in experiment [15], 12 µM (inactive); in experiment [16], 15.6 µM (inactive); in experiment [17], 8.81 µM (inactive); in experiment [18], 15.7 µM (inactive). For the same compound, in experiment [19], the GI50 was 12.5 µM (inactive).
With `CCCCCCCCCCC[N+]1(Cc2ccccc2)CC2CCN(Cc3ccccc3)CC2C1` (stereo unspecified), the GI50 in [1] is 0.327 µM (active); in [2], 0.261 µM (active); in experiment [20] it was 0.173 µM (active); in experiment [3], 0.665 µM (active); in experiment [4] it was 0.284 µM (active); in experiment [5], 0.106 µM (active). In addition, the GI50 is 0.679 µM (active) in experiment [7]; 0.377 µM (active) in experiment [8]; 0.555 µM (active) in experiment [9]; 0.422 µM (active) in experiment [10]; 0.247 µM (active) in [11]; 0.451 µM (active) in experiment [12]. For the same compound, the GI50 in experiment [13] was 0.587 µM (active); in experiment [14], 0.199 µM (active); in experiment [15], 1.29 µM (inactive); in [16], 0.323 µM (active); in [17] it was 0.67 µM (active); in experiment [18], 1.55 µM (inactive). Moreover, in experiment [19], the GI50 is 1.2 µM (inactive).
